This is an account of results in patent publication US20060281735A1, “Antipsychotic combination therapies and compositions of an alpha-2 adrenergic receptor antagonist and an atypical antipsychotic neuroleptic” (priority 2002, published 2006).

One assay relates to α2 autoreceptors. To be noted: presynaptic level; antagonism of clonidine; cited from earlier work.
The next assay deals with α2 adrenoreceptors. Particulars: binding studies; cited from earlier work.
The subject of the next assay is Wistar rats. Description: Conditioned avoidance response (CAR) behavior in rats. Particulars: rat CAR; 2.5 mg/kg with idazoxan versus about 5 mg/kg alone. Format: in vivo.
The test system of assay [1] is α2-adrenergic receptor versus D2 receptor. Particulars: literature; cited from earlier work.
A further assay addresses T1, D2 dopamine receptor (Homo sapiens, UniProt P14416).
T1 construct: In vivo D2 occupancy can be determined using finctional brain imaging technologies such as Positron Emission Tomography (PET); host or cells: brain of treated patients, in vivo imaging
Particulars: at effective antipsychotic treatment; literature; cited from earlier work.

A further assay deals with α2 receptor. Particulars: idazoxan; stated with Litman et al. 1996; cited from earlier work.

T1 sequence (P14416 whole entry): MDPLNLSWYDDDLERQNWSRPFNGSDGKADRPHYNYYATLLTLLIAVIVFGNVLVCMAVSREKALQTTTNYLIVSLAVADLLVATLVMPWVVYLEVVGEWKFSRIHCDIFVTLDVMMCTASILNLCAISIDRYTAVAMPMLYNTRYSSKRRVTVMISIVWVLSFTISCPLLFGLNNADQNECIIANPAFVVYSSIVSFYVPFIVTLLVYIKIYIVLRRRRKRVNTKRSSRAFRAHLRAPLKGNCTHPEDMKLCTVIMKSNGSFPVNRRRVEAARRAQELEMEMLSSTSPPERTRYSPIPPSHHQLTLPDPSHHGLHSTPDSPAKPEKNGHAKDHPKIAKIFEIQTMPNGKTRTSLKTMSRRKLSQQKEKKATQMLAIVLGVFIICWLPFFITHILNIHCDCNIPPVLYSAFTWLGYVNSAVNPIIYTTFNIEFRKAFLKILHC
Excerpt for Wistar rats: Adult, male Wistar rats, 200-225 g (B & K Universal, Sollentuna, Sweden) were used. The animals were housed under standard laboratory conditions, on a reversed light/dark cycle (lights off 08:00 am), and allowed 1 week of adaptation to laboratory conditions before being used in experiments. Food and water were available ad libitum.
Rats were trained and tested in a conventional, manually operated two-way active avoidance (shuttlebox) apparatus connected to a high resistance power supply. The box was divided into two compartments of equal size by a partition with one opening. Upon presentation of the 80 dB white noise conditioned stimulus (CS), the animals had 10 seconds to move from one compartment of the shuttlebox into the other. If the rat remained in the same compartment for more than 10 seconds, an intermittent electric shock (approx. 0.2 mA of 0.5-sec duration; intershock interval 2.5 sec), the unconditioned stimulus (UCS), was presented in the grid floor until an escape was performed. […] Intertrial intervals varied at random between 20 and 40 seconds. The following variables were recorded: avoidance (response to CS within 10 sec); escape (response to CS+UCS); escape failures (failure to respond); and intertrial crosses. The animals were trained for 3 consecutive days. Training sessions were run over 15 minutes. […]

With `c1ccc2c(c1)OCC(C1=NCCN1)O2` (single isomer, unassigned; (+)) [(+)-idazoxan], the “Affinity towards the α2 autoreceptors, times higher than (−) idazoxan” value in the assay on α2 autoreceptors is 40 times. Besides, the “Potency in inhibiting p-[3H]aminoclonidine binding, times more potent than the other enantiomer” value in the assay on α2 adrenoreceptors is 7-8 times.

In the case of `Cc1cc2c(s1)Nc1ccccc1N=C2N1CCN(C)CC1` [olanzapine], in the assay with Wistar rats, the “Reduction of olanzapine dose required for effective antipsychotic effect through adjunct idazoxan” value is given as around 50%.

Take `O=C1Cc2cc(CCN3CCN(c4nsc5ccccc45)CC3)c(Cl)cc2N1` [ziprasidone]: the “Fold less affinity for the α2 adrenergic receptor than for the dopamine D2 receptor” value (from here on “Fold less affinity”) in assay [1] was 100 fold.

`Cc1nc2n(c(=O)c1CCN1CCC(c3noc4cc(F)ccc34)CC1)CCCC2` [risperidone]: at D2 dopamine receptor, the “In vivo D2 occupancy” value is at least 70%. The “Fold less affinity” value in assay [1] is recorded as 2-16 fold.

Take `c1ccc2c(c1)OCC(C1=NCCN1)O2` (racemic) [idazoxan, ±-2-(1,4-benzodioxan-2-yl)-d-imidazoline]: the Ki at α2 receptor is around 30 nM.

With `OCCOCCN1CCN(C2=Nc3ccccc3Sc3ccccc32)CC1` [quetiapine], the “Fold less affinity” value in assay [1] is 6-16 fold.
